Assay results: patent publication US20230241071A1, “COMBINATION TREATMENT OF LIVER DISORDERS” (Terns Pharmaceuticals, Inc., priority 2021, published 2023)

Tested on: mouse model of NASH
Assay: Mouse NASH model (high fat diet + CCl4), Compound 3 and Compound 2 alone and combined
Type: in vivo
Conditions: liver RNAseq vs vehicle NASH control, 28 d; Compound 3 3 mg/kg, Compound 2 1 mg/kg; adj. p<0.05, fold-change >1.5
Description: C57BL/6J mice were fed a high fat diet for 10 weeks to induce obesity (>38 g BW). Obese mice were injected intraperitoneally (i.p.) twice a week for four weeks with […] 25% CCl4 (formulated in olive oil) to induce fibrosis, and one group of normal BW mice were injected i.p. twice a week for four weeks with olive oil to serve as a healthy control. During the same dosing period, obese mice were fed orally once a day for 28 days with vehicle, Compound 3 or Compound 2 as single agents or in combination. On CCl4 dosing days, CCl4 was administered at 4 hours post compound or vehicle dosing. On day 27, all animals were fasted for about 16 hours before terminal euthanasia. On day 28, all animals were sacrificed and liver samples were collected for whole transcriptome analysis by RNA sequencing (RNAseq). RNAseq library (n=5 per group) preparation and sequencing was performed using Illumina standard protocols. Alignment of sequencing reads was performed using STAR aligner software and read counts were estimated using RSEM. Differentially expressed genes (compared to vehicle-treated NASH control mice) were determined using EdgeR software. Gene ontology analysis was performed using Advaita software with fold-change and adjusted p-value cutoffs of >1.5 and <0.05, respectively. Gene ontologies were derived from the Gene Ontology Consortium database (2019 Apr. 26) (Ashburner et al., Gene ontology: Tool for the unification of biology. Nature Genetics 25(1): 25-9 (2000); Gene Ontology Consortium, Creating the Gene Ontology Resource: Design and Implementation. Genome Research 11: 1425-1433 (2001)).
Gene ontology (GO) enrichment analysis was used to understand the potential biological consequences of the results in Table 22. To perform GO term enrichment analysis, the number (i.e., enrichment) of DEGs annotated for a particular term (i.e. biology process) was compared to the number of DEGs expected solely by chance. An over-representation approach was used to compute statistical significance (p-value) of observing at least the given number of DEGs; p-values were corrected for multiple comparisons.
On day 28 of treatment as described in Example 14, animals were euthanized for sample collections. Analysis of cholesterol, triglycerides, and ALT was done using a Hitachi 7180 clinical analyzer. Liver samples were processed for lipid quantification (colorimetric assays, SpectraMax 340PC384), histology, and RNA analysis. RNAseq library preparation (n=5 per group) and sequencing was performed using Illumina standard protocols. Alignment of sequencing reads was performed using STAR aligner and read counts were estimated using RSEM. Differentially expressed genes (DEGs) relative to NASH control were determined using EdgeR. Gene ontology analysis was performed using Advaita software.

Structure (SMILES)	Down DEGs	Total DEGs	Up DEGs
N#Cc1nn(-c2cc(Cl)c(Oc3n[nH]c(=O)c4ccccc34)c(Cl)c2)c(=O)[nH]c1=O [Compound 2, 2-(3,5-dichloro-4-((4-oxo-3,4-dihydrophthalazin-1-yl)oxy)phenyl)-3,5-dioxo-2,3,4,5-tetrahydro-1,2,4-triazine-6-carbonitrile]	635	1113	478
Cn1cc(C(=O)O)c2ccc(N3CCC(OCc4c(-c5c(Cl)cccc5Cl)noc4C4CC4)CC3)cc21 [Compound 3]	271	617	346
